Test results from patent US7776858B2, “Methods of treatment of chronic pain using eszopiclone” (Sepracor Inc., priority 2004, dated 2010).

Legend:
conscious dogs = assay: Dose escalation safety study, cardiovascular and respiratory parameters after acute intravenous administration
Method: To establish the safety of eszopiclone, a dose escalation study was carried out. Cardiovascular and respiratory parameters were evaluated in conscious dogs following acute intravenous administration of (R)-, (S)- or racemic zopiclone at three doses (3, 5 and 12 mg/kg).

mice = assay: Antagonism of oxotremorine induced salivation; type: in vivo; conditions: doses up to 300 mg/kg, p.o.
Method: Eszopiclone was evaluated for antimuscarinic activity in vivo.

[1] = acute intravenous, 3, 5 and 12 mg/kg

With `CN1CCN(C(=O)O[C@@H]2c3nccnc3C(=O)N2c2ccc(Cl)cn2)CC1` [(R)-Zopiclone] the hemodynamic effect (conscious dogs; acute intravenous, 12 mg/kg) was “did not produce a consistent hemodynamic effect”, the “Blood gases and blood chemistries (pH, pCO2, pO2, hematocrit, and lactate)” value (conscious dogs; [1]) was “remained unaffected” and the “cardiotoxicity by electrocardiogram (ECG)” value (conscious dogs; [1]) was “No evidence of cardiotoxicity”. The “antagonism of oxotremorine induced salivation” value (mice) was “neither (R)-, (S)-, nor racemic zopiclone significantly antagonized”.
